In patent publication US20020034725A1, “SENSITIZATION OF CELLS TO RADIATION AND AND CHEMOTHERAPY” (priority 1996, published 2002):

Key:
[1] = tested on: H-ras; assay: Western blot of ras farnesylation in mouse prostate tumor cells; assay type: cell-based; details: primary tumor cells or metastatic clone, 24 hours
Procedure: FIG. 13A is an image of a Western blot depicting the effects of FTI-277 on ras farnesylation in cultured cells derived from a primary and a metastatic tumor following 24 hours of treatment with the inhibitor at the indicated concentrations. Mouse prostate tumor cells transformed with H-ras^v12 and myc oncogenes were treated with the indicated doses (μM) of FTI-277. After 24 hours, samples were harvested for Western blot analysis using an anti-H-ras antibody. The upper band (arrow) corresponds to unfarnesylated H-ras. C denotes controls.
Cells were lysed in culture dishes with 1 x reducing Laemmli sample buffer. Samples were boiled, sheared and clarified by centrifugation at 14,000 rpm in a microfuge before storage at −20° C. Samples containing equal amounts of protein were separated on a 12% SDS polyacrylamide gel and electrophoretically transferred to nitrocellulose membranes. Membranes were blocked for 1-2 hours in PBS containing 0.1% Tween-20 and 5% powdered milk before antibody addition. Membranes were probed with monoclonal pan-ras antibody AB-4 (Oncogene Science, Uniondale, N.Y.) at a concentration of 0.5 μg/ml, or with monoclonal H-ras antibody LA069 (1:5000 dilution; Quality Biotech, Camden, N.J.). Detection of protein was accomplished using the ECL chemiluminescence kit (Amersham, Arlington Heights, Ill.). […]

[2] = tested on: wild type c-H-ras; assay: Western blot of ras farnesylation in untransformed REF and MR4 cells; assay type: cell-based, rat
Text: (§1) The oncogene-transfected cells used in this study were all derived from early passage rat embryo fibroblast (REF) by transfection with the pEJ plasmid containing the H-ras gene isolated from the EJ bladder carcinoma. This vector was introduced by calcium phosphate DNA transfer into primary REF, either alone or together with the pMC29 vector containing v-myc. One clone containing both the introduced H-ras gene and the v-myc genes is 3.7 (McKenna et al., 1990, Cancer Res. 50:97-102). 4R and 5R cells were obtained as rare transformants after transfection with the pEJ plasmid alone (McKenna et al., 1993, supra). MR4 cells were immortalized by transfection with an expression vector comprising v-myc linked to a neomycin-resistant selectable marker (McKenna et al., 1991, Radiat. Res. 125:283-287). REF-GG cells were obtained by transforming REF cells with a chimeric H-ras(v12) in which the CAAX motif is CVLL. All cell lines were mycoplasma free.
(§2) Cells were lysed in culture dishes with 1 x reducing Laemmli sample buffer. Samples were boiled, sheared and clarified by centrifugation at 14,000 rpm in a microfuge before storage at −20° C. Samples containing equal amounts of protein were separated on a 12% SDS polyacrylamide gel and electrophoretically transferred to nitrocellulose membranes. Membranes were blocked for 1-2 hours in PBS containing 0.1% Tween-20 and 5% powdered milk before antibody addition. Membranes were probed with monoclonal pan-ras antibody AB-4 (Oncogene Science, Uniondale, N.Y.) at a concentration of 0.5 μg/ml, or with monoclonal H-ras antibody LA069 (1:5000 dilution; Quality Biotech, Camden, N.J.). Detection of protein was accomplished using the ECL chemiluminescence kit (Amersham, Arlington Heights, Ill.). Images were digitized using an Arcus II scanner, and figures were assembled using Adobe Photoshop 3.0.

[3] = target: FTase (Homo sapiens, UniProt P49354+P49356); details: cited from earlier work
[4] = tested on: H-ras^v12; assay: Western blot of H-ras farnesylation in H-ras transformed REF cells (3.7, 4R, 5R); assay type: cell-based, rat
Text: as §1, §2
Transformed REF cells derived from the R5 cell line were treated with 5 μm FTI-277 to establish a time course for the accumulation of unfarnesylated H-ras. Prenylated forms of ras migrate more rapidly than unprenylated ras on SDSpolyacrylamide gels (Gutierrez et al., 1989, EMBO J. 8:1093-1098; Farh et al., 1995, Arch. Biochem. Biophys. 18:113-121). This shift in motility was used to assess the prenylation status of H-ras after farnesyltransferase inhibitor treatment.

[5] = tested on: SW480 colon carcinoma cells; assay: Clonogenic radiation survival of SW480 cells; assay type: cell-based, human; details: 30 μM FTI-277, 24 hours before irradiation
Procedure: SW480 cells were treated for 24 hours with 30 μM FTI-277 before irradiation. Clonogenic survival was subsequently assessed in the cells. Treatment with the inhibitor was maintained for 24 hours after irradiation, at which time medium was replaced with inhibitor free medium. Control cells were treated as above with diluent. Open squares: control cells; closed squares: FTI-277 treated cells.
FIG. 18B is a graph depicting a reduction in the radiation survival of SW480 cells following inhibition of K-ras prenylation by FTI-277 and GGTI-298. SW480 cells were treated for 24 hours with 5 μM FTI-277 and 8 μM GGTI-298 before irradiation and assessment of clonogenic survival. Inhibitor treatment was maintained for 24 hours after irradiation, at which time the medium was replaced with inhibitor free medium. Control cells were treated as above with an equal amount of drug-free diluent. Open squares: control cells; closed squares: FTI and GGTI treated cells.

[6] = tested on: REF-GG cells; assay: SF2 by limiting dilution analysis of clonogens; assay type: cell-based, rat; details: 5 μM FTI-277
Procedure: FIG. 14B comprises two graphs depicting clonogenic survival of REF-GG cells following treatment with GGTI-298 and irradiation. REF-GG cells were plated at 1 to 5 cells per well in microtiter plates in the absence (top panel) or presence (bottom panel) of 8 μM of the geranylgeranyltransferase inhibitor, GGTI-298. Cells were then irradiated with 2 Gray or were mock irradiated. Cells were re-fed after 24 hours with medium that contained no inhibitor, thus diluting the inhibitor to 0.8 μM. These cells were then incubated for two weeks prior to scoring for colony formation. The data are presented as the natural log of the fraction of negative wells. The surviving fraction at 2 Gray was determined from the differences in the slopes obtained by linear regression of analysis of irradiated and unirradiated cells. The surviving fraction at 2 Gray calculated for cells irradiated after GGTI-298 treatment was 0.64. Control cell surviving fraction after 2 Gray was 0.91. The correlation coefficient for linear regression analysis (r^2) was greater than 0.95 in all cases.
Cells were irradiated with the indicated doses of ionizing radiation and were treated with FTI-277 for 24 hours after irradiation (FIG. 14A). […] The shoulders of the survival curves were reduced as were the overall slopes of the survival curves. […]

COC(=O)[C@H](CCSC)NC(=O)c1ccc(NC[C@@H](N)CS)cc1-c1ccccc1 [FTI-277]
H-ras farnesylation [1]: dose-dependent reduction of the farnesylated form | migration of ras ([2]; MR4 cells, up to 10 μm, pan-ras antibody): no changes in the migration of ras | H-ras farnesylation status ([2]; untransformed REF, doses of up to 30 μM): majority of the H-ras remained in the farnesylated form | FTase inhibition [3]: inhibited Ftase activity | H-ras farnesylation status ([4]; 3.7, 4R and 5R cells, 2.5 to 10 μm, 24 hours): primarily unfarnesylated | time by which detectable farnesylated H-ras was observed after removal of inhibitor ([4]; 3.7 cells, 5 μm for 30 hours, then removed): ≤ 2 h | H-ras in the farnesylated form after removal of inhibitor ([4]; 3.7 cells, 6 hours after removal): about 50% | form of H-ras after removal of inhibitor ([4]; 3.7 cells, 24 hours after removal): majority of the H-ras in the cells was in the farnesylated form | time by which conversion of H-ras to the slower moving form was observed ([4]; 5R cells, 5 μm FTI-277): ≤ 4 h | detectable H-ras in the unfarnesylated form ([4]; 5R cells, 5 μm FTI-277, 6-8 hours after addition): approximately 50% | time to reversal of accumulation of unfarnesylated H-ras after removal of inhibitor ([4]; H-ras transformed REF cells): ≤ 24 h | radiation survival [5]: reduction in radiation survival | SF2 (surviving fraction at 2 Gray) [6]: 0.81
